{"source": "patent US12566184B2", "about": "“Cell-free biosensors to detect creatinine, creatine, and sarcosine” (Georgia Tech Research Corporation, priority 2021, dated 2026)"}
{"system": "colored probe product", "assay": "enzymatic creatinine assay with limited chemical probe (Amplex Red): stabilization of probe signal by antioxidants", "assay_type": "biochemical", "conditions": "antioxidants added at different concentrations; chemical probe at low concentration", "source_text": "The existing assay is a purely enzymatic approach that translates the concentration of creatinine into a colorimetric change of varying intensity. It contains two enzymes. The first enzyme, creatininase, catalyzes the conversion of creatinine to creatine. The second enzyme, creatinase, catalyzes creatine to sarcosine. This bioconversion aspect of the assay can be maintained in both of the embodiments. In the existing assay, the sarcosine is then oxidized by sarcosine oxidase, generating hydrogen peroxide in the process. The fluorogenic peroxidase substrate Amplex Red, hereafter referred to as the “probe”, interacts with the generated hydrogen peroxide in the presence of horseradish peroxidase to produce the red-fluorescent product resorufin (see Yamkamon et al. Simultaneous determination of sarcosine and its related metabolites by gas chromatography-tandem mass spectrometry for prostate cancer diagnosis, EXCLI Journal, 2018). Resorufin accumulation leads to a visible color change with a linear response over physiological serum creatinine concentrations. However, there is significant day-to-day variability of unknown origin that affects the amplitude of the output, thus requiring (per manufacturer's instructions) a calibration curve to be run with every sample or batch of samples and complicating field deployment.\nIn certain embodiments of the disclosed invention, the existing assay can be taken in its entirety and titrated down the amount of probe (fluorogenic peroxidase substrate, Amplex Red) so as to produce a sample-specific calibration curve. The probe concentration that corresponds with specific creatinine concentrations in calibration tests can be first identified using defined chemical mixtures and then implemented in a serum sample matrix to validate the sample-specific calibration curve. […] This method yields a set of reactions to which patient sample can be added, and regardless of the sample levels of creatinine, the calibration spots will all correspond to defined levels of creatinine. The reaction with excess probe can then be visually compared to the calibration spots to determine the creatinine level. In particular, a shift from colorless to red may be useful for a presence-absence or binary diagnostic test. For more accurate monitoring of intensity of color, a plate reader (e.g., spectrophotometer or fluorescence reader) can be used.\nFurthermore, in order to reduce the patient-to-patient variability in readouts, also known as matrix effects, where the molecule being measured may appear to be at a different concentration only due to interferences from other constituents of the solution, the inventors identified that the appropriate reagent to limit was not the enzymes in the chemical assay, but rather the chemical probe. However, when the concentration of the chemical probe was reduced to a low level to enable the calibration approach, a side reaction happened where probe that has been transformed from colorless into colored form undergoes a second reaction that brings it back to a colorless form. This made the signal “decay” and thus would lead to an underreporting of the target molecule's concentration."}
{"molecule": "Vitamin E", "effect on decay of probe signal (transformation of colored probe product into colorless side product)": "preventing the decay of probe signal"}
{"molecule": "O=C(O)CC(O)(CC(=O)O)C(=O)O", "note": "[citric acid]", "effect on decay of probe signal (transformation of colored probe product into colorless side product)": "preventing the decay of probe signal"}
{"molecule": "O=C1O[C@H]([C@@H](O)CO)C(O)=C1O", "note": "[Vitamin C]", "effect on decay of probe signal (transformation of colored probe product into colorless side product)": "preventing the decay of probe signal"}
{"molecule": "N[C@@H](CCC(=O)N[C@@H](CS)C(=O)NCC(=O)O)C(=O)O", "note": "[L-glutathione (reduced)]", "effect on decay of probe signal (transformation of colored probe product into colorless side product)": "preventing the decay of probe signal"}
{"molecule": "Cc1c(C)c2c(c(C)c1O)CCC(C)(C(=O)O)O2", "note": "(racemic) [(±)-6-Hydroxy-2,5,7,8-tetramethylchromane-2-carboxylic acid]", "effect on decay of probe signal (transformation of colored probe product into colorless side product)": "preventing the decay of probe signal"}
{"molecule": "O=c1[nH]c(=O)c2[nH]c(=O)[nH]c2[nH]1", "note": "[uric acid]", "effect on decay of probe signal (transformation of colored probe product into colorless side product)": "preventing the decay of probe signal"}
